Data published in patent US10603273B2, “Membrane-adherent self-assembled systems for treatment of ocular disorders” (Integral Biosystems LLC, priority 2014, dated 2020).
In brackets after ≈: the same amount, converted by molar mass. Read-outs that look alike come from different tables or passages of the source. Values belong to the molecule of their own block, whether it stands above or below them.

Columns and labels:
[1] = Encapsulation efficiency (centrifugation, HPLC); type: physicochemical; settings: 0.1% nanostructured dispersion (Phase III); mg drug per g dispersion
Description: Encapsulation efficiency (mg/G) was measured by placing 1.0 g of drug-containing Phase III into a 1.5 mL centrifuge tube and centrifuging it at 6000 rpm for 10 minutes using an Eppendorf Centrifuge 5145D at room temperature. 100 μL of the centrifugate was transferred to an HPLC vial containing 900 μL of 75% acetonitrile/25% water. The samples were measured for concentration of drug, e.g., dexamethasone, by HPLC at λmax=239 nm. The concentration was calculated as mg drug per g of the Phase III dispersion.

[2] = In-vitro drug release, dialysis device, 1% HP-β-CD phosphate buffer pH 7.4, 37° C.; type: in vitro ADME; settings: 0.1% nanostructured dispersion; released over 3 hours
Description: In-vitro drug release was determined at 37° C., pH 7.4 as follows: The Phase III dispersion (1 g) was transferred into a Spectra/Pore Float-A-Lyzer G2 dialysis device, which was then placed into a 50 mL locking centrifuge tube containing 40 g of 1% hydroxylpropyl-β-cyclodextrin (HP-β-CD) in phosphate buffer at pH 7.4, 37° C. The entire assembly was loaded onto a Robbins Scientific Model 400 rotating incubator. At each time point, 1 mL of sample was retrieved and fresh buffer added to replace the volume removed. Samples were measured for drug content using HPLC at λmax=239 nm.

freshly excised cornea = test: Ex-vivo corneal permeability, Franz-Cell diffusion chamber; type: in vitro ADME, calf; settings: % of applied drug in 22 hours, 37° C.
Excerpt: Ex-vivo corneal permeability testing is a useful tool to screen formulations for their ability to penetrate ocular tissues. Using freshly excised cornea, formulations can be tested for their ability to diffuse across the cornea membrane. The ability to diffuse through biological membranes is directly related to the formulation excipients, its physical state (e.g., suspension, solution, emulsion, dispersion) and its partition coefficient (P) and log P. Fresh calf eyes were obtained from a nearby slaughterhouse and the corneas carefully excised using sterile technique. The corneas must be freshly excised and used within 1-2 hours. The corneas were excised in a sterilized laminar flow hood, in a Class 100 environment. The excisions were performed by first draining the aqueous humor followed by carefully cutting out the cornea using a scalpel for the initial incision; forceps and scissors were used to cut the remaining tissue. […] The volume was recorded, and the remaining cells filled. […] Samples were added in rapid succession by depositing 200 μL of the formulation into each donor chamber using a calibrated pipet and the times recorded. […] The samples were analyzed for API content by HPLC as described above. […] Flux can be calculated by the formula: J=Q/(A·t), where Q is the quantity of compound traversing the membrane in time t, and A is the area of exposed membrane in cm^2. […]

[3] = Solubility of API in Phase I excipient mixtures; type: physicochemical
Description: Solubility of APIs were examined in different Phase I mixtures.
Initially, the solubility of fluticasone propionate was determined in 10 g of Phase I composed of a 7:3 (w/w) mixture of PHOSAL™ Medium Chain Triglycerides (“MCT”) and polyethylene glycol-400 (PEG-400). MCT, a mixture of phosphatidylcholine and medium chain triglycerides, is the hydrophobic component and PEG-400 is the hydrophilic component in this exemplary Phase I. MCT and PEG-400 were added into a glass vial and the mixture was vortexed for 2 min until the components formed a homogeneous mixture. Fluticasone propionate was added in an incremental manner and stirred at 850 rpm using a Scilogex MSH 280 Pro hot stir plate at a temperature of 37° C. Stirring was continued until saturation solubility was reached.
In order to increase the solubility of the fluticasone propionate in Phase I, mineral oil (Drakeol 600LT) was added into the composition. A Phase I containing MCT: PEG-400: mineral oil weight ratio of 7:2:1 was prepared as described above. The total amount of Phase I was 10 g. Fluticasone propionate was added in an incremental manner and the mixture was stirred for 5 min. and vortexed for 5 min after each addition of fluticasone propionate into the mixture. In this Phase I, 98.2 mg of fluticasone propionate dissolved completely in 37 min.
Another Phase I mixture containing PEG-400, polypropylene glycol (PPG), and cremophor in a weight ratio 2.9:7:0.1 was also evaluated. Cremophor was used because it is widely used as a co-solvent to enhance the solubility of poorly soluble drugs.
In this Phase I, 200.30 mg of fluticasone propionate was completely dissolved in 10 g when stirred at 1200 rpm for 2 min at 45° C.
Another Phase I mixture was produced containing 30% w/w PEG-400, 60% w/w PPG, 5% w/w MCT, 0.25% w/w cetyl alcohol, and 4.75% w/w ethanol. In 10 g of this Phase I, 180 mg fluticasone propionate dissolved completely after stirring at 1280 rpm for 15 min at 45° C.
Triamcinolone acetonide is a […] anti-inflammatory drug having low aqueous solubility.
A Phase I containing 30% w/w PEG-400, 20% w/w PPG, 0.5% w/w cetyl alcohol, 9.5% w/w ethanol, 5% w/w MCT and 35% w/w Castor oil was produced. Triamcinolone acetonide was added incrementally and the mixture stirred at 840 rpm using a Scilogex MSH 280 Pro set to 45° C.

[4] = Particle size distribution (Horiba particle size analyzer); type: physicochemical; settings: nanodispersion of the named drug, drug delivery platform of Example 1
Description: Particle sizing was carried out by adding approximately 20 μL of the Phase III dispersion in a solution of 2% w/w glycerin, 0.1% w/w sodium pyrophosphate decahydrate. Particle size distribution of the Phase III nano-dispersions were measured using a Horiba LA-950V2 particle size analyzer at room temperature, i.e., 22-25° C.

[5] = Solubility of fluticasone propionate in nanostructured dispersions and single excipients; type: physicochemical; settings: for solubility: oil or lipid
Description: Phase I was prepared containing PEG-400 at 20%, PPG at 10%, cetyl alcohol at 10%, MCT at 1%, PEG-stearate at 7%, poloxamer 407 at 2.22%, tyloxapol at 1%, polysorbate 80 at 1%, castor oil at 38%, and fluticasone propionate at 1-2%.
The composition of Phase II was sodium phosphate monobasic (0.017%), sodium phosphate dibasic (0.052%), sodium hyaluronate (0.15%), and dH2O (99.78%).
Phase I was mixed with Phase II at a weight ratio of 1:9.
The concentration of fluticasone propionate achievable in this formulation was 0.1-0.2%.
The solubility of fluticasone propionate in cetyl alcohol was 0.3 mg/ml. As just described, the final dispersion has a fluticasone propionate concentration of 1-2 mg/ml (0.1-0.2%).
In this example, cholesterol was added to obtain a higher concentration of hydrophobic excipients. The composition of Phase I was PEG-400 (20%), PPG (10%), cetyl alcohol (10%), cholesterol (2%), MCT (10%), PEG-stearate (5%), poloxamer 407 (2.22%), tyloxapol (1%), polysorbate 80 (1%), castor oil (36.9%), and fluticasone propionate (1-5%).
The final concentration of fluticasone propionate achievable in this formulation is 0.1-0.5% The maximum amount of fluticasone propionate expected to be solubilized by adding up the amount solubilized in each separate excipient is 0.06%.

amount of drug encapsulated [1]: 1.24 mg/G | in vitro drug release [2]: 35% | corneal permeability, drug released into the receptor solution (freshly excised cornea): 36%
Compound: CCOC(=O)O[C@]1(C(=O)OCCl)CC[C@H]2[C@@H]3CCC4=CC(=O)C=C[C@]4(C)[C@H]3[C@@H](O)C[C@@]21C [loteprednol etabonate]

amount completely dissolved in Phase I ([3]; in 10 g of 5% cetyl alcohol in ethanol, 1200 rpm, 2 min, 45° C.): 200.30 mg | amount dissolved completely in Phase I ([3]; in 10 g of Phase I, MCT:PEG-400:mineral oil 7:2:1, dissolved in 37 min): 98.2 mg | amount dissolved in Phase I ([3]; in 10 g of Phase I: 30% PEG-400, 60% PPG, 5% MCT, 0.25% cetyl alcohol, 4.75% ethanol, 1280 rpm, 45° C.): 180 mg | D50 [4]: 0.141 μm | D90 [4]: 0.181 μm | maximum concentration expected from adding the solubilized contribution of each excipient ([5]; Example 8 excipients): 0.05% | fluticasone propionate concentration of final dispersion ([5]; Example 8 final dispersion): 1 to 2 mg/mL | concentration of fluticasone propionate achievable in formulation ([5]; Example 8 formulation, Phase I:Phase II 1:9, by weight): 0.1-0.2% | maximum amount expected to be solubilized by adding up the amount solubilized in each separate excipient ([5]; Example 9 excipients): 0.06% | final concentration of fluticasone propionate achievable in formulation ([5]; Example 9 formulation with cholesterol, Phase I:Phase II 1:9): 0.1-0.5% | solubility ([5]; PHOSAL MCT alone, read-out: solubility in MCT): 150 µg/mL (≈ 300 µM) | solubility ([5]; cetyl alcohol alone, read-out: solubility in cetyl alcohol): 300 µg/mL (≈ 599 µM)
Compound: CCC(=O)O[C@]1(C(=O)SCF)[C@H](C)C[C@H]2[C@@H]3C[C@H](F)C4=CC(=O)C=C[C@]4(C)[C@@]3(F)[C@@H](O)C[C@@]21C [fluticasone propionate]

in vitro drug release [2]: at least 25%
Compound: C[C@@H]1C[C@H]2[C@@H]3CCC4=CC(=O)C=C[C@]4(C)[C@@]3(F)[C@@H](O)C[C@]2(C)[C@@]1(O)C(=O)CO [dexamethasone]

saturation solubility in Phase I ([3]; in 10 g of Phase I: 30% PEG-400, 20% PPG, 0.5% cetyl alcohol, 9.5% ethanol, 5% MCT, 35% castor oil, 840 rpm, 45° C.): 230 mg
Compound: CC1(C)O[C@@H]2C[C@H]3[C@@H]4CCC5=CC(=O)C=C[C@]5(C)[C@@]4(F)[C@@H](O)C[C@]3(C)[C@]2(C(=O)CO)O1 [triamcinolone acetonide]
